Assay results from patent US20190315814A1, “LANTIBIOTIC VARIANTS AND USES THEREOF” (priority 2016, published 2019).
≈ marks a conversion by molar mass, not a printed value. Like-named read-outs stand apart in the source and are kept apart here. Marks after values point to notes of the source that are not given here.

How the values were obtained:
[1] = system: Streptococcus pneumoniae (ATCC 700675); experiment: MIC assay against Streptococcus pneumoniae; type: cell-based; settings: ATCC700675, read-out: MIC S. pneumonia
[2] = system: Eggerthella lenta (ATCC 27337)
[3] = system: Clostridium difficile UNT103-1; experiment: Non-cannulated Syrian hamster C. difficile infection model, oral gavage; type: in vivo, Golden Syrian hamsters; settings: for Efficacy compared with Vancomycin-treated animals: end of the study at Day 22, in words; for Efficacy compared with Vancomycin-treated animals / Toxin A level at Day-22 / Mean LOG10 CFU/mL of feces homogenates (cecal spore counts) at Day-22 / Toxin B level at Day-22: oral gavage; for Percent Survival at Day-22: oral gavage TID Days 2-6, vancomycin 20 mg/kg once a day; for Toxin A level at Day-22: first value of A/B cell; for Toxin A level at Day-22 / Toxin B level at Day-22: limit of detection 0.8; for Mean LOG10 CFU/mL of feces homogenates (cecal spore counts) at Day-22: limit of detection 2.40; for Toxin B level at Day-22: second value of A/B cell
Description: (§1) Following the recovery phase, male Golden Syrian hamsters were inoculated with Clostridium difficile UNT103-1 (VA11, non epidemic (cdtB-, REA group J) Curtis Donskey, Cleveland VA Hospital, Cleveland, Ohio). On Day 1, at 24 hrs after infection, all animals received a single subcutaneous injection of clindamycin (10 mg/kg). Test article formulations were administered three times per day (TID), starting on Day 2 at 18 hours after Clindamycin injection, for 5 consecutive days (Days 2 through 6), and followed until Day 22 to assess recurrence. Vancomycin (positive control) was administered once a day at 20 mg/kg on Days 2 through 6. Cecal spore counts and Toxins A and B were determined as described above

in vitro = settings: simulated gi fluid
Description: Assay incubation conditions included […] simulated gastric fluid (SGF, USP 39 Test Solution; 2 g/L NaCl, 7 mL/L glacial HCl, pH 1.4) containing 1.75 mg/mL Pepsin (3200-4500 U/mg) mixed with 7.5 μL of 10 mg/mL variant (or positive control, NH2-Met-Arg-Phe-Ala-OH, MRFA, CAS#67368-29-0) for a final concentration of 300 μg/ml variant in a microfuge tube. Samples were incubated at 37° C. and analyzed using HPLC or LC-MS for loss of substrate. The percent remaining, elimination rate constant (Ke), and in vitro protein half-lives were calculated. A control of SGF without enzyme was also run and analyzed in the same manner for each variant.

[4] = simulated gi fluid
[5] = system: Clostridium difficile UNT103-1; experiment: Second non-cannulated Syrian hamster C. difficile infection model, oral gavage dose range-finding; type: in vivo, Golden Syrian hamsters
Description: as §1, with “formulated at 3 to 5 different doses” for “formulations”, “above.” for “above”

[6] = system: Peptostreptococcus anaerobius (ATCC 27337)
[7] = system: Clostridium scindens (ATCC 35704)
[8] = system: Lactobacillus acidophilus (CCUG 4356)
[9] = system: VRE Enterococcus faecalis
VRE Enterococcus faecium [10] = system: VRE Enterococcus faecium
VRE Enterococcus faecium [11] = experiment: organism not typed; settings: read-out: MIC VRE ATCC 700221, strain ATCC 700221
[12] = system: VRE Enterococcus faecalis; experiment: organism not typed
[13] = system: Eggerthella lenta (ATCC 27337); experiment: microbe, parasite or virus in culture; settings: ATCC27337, read-out: MIC E. lenta
Pseudomonas aerigunosa = experiment: MIC against Gram negative P. aeruginosa; type: cell-based, Pseudomonas aeruginosa
Description: A minimum inhibitory concentration (MIC) assessment against Pseudomonas aerigunosa (a Gram negative bacterium) was performed for single site variants in the broth dilution assay as described by the CLSI (CLSI document M07-A8). Samples and Ofloxacin control were dissolved and serially diluted in 100% DMSO and 4 μL was added per well to 96-well plate with 196 μL of Cation Adjusted Mueller Hinton II Broth seeded with P. aeruginosa. […] The assay plates were loosely wrapped in a plastic bag and incubated 20-24 hours at 36° C. (aerobic conditions) and then visually examined and scored positive (+) for inhibition of growth or turbidity or negative (−) for no effect upon growth or turbidity.

Staphylococcus aureus = experiment: MIC assay against Staphylococcus aureus; type: cell-based
[14] = FaSSIF + 1% pancreatin + 3 μg/ml trypsin + 3 μg/ml chymotrypsin half-life
[15] = 6 mg/Kg oral gavage TID Days 2-6
[16] = 20 mg/Kg oral gavage TID Days 2-6
[17] = 60 mg/Kg oral gavage TID Days 2-6
[18] = 35 mg/Kg oral gavage TID, limit of detection 0.8

| Molecule | MIC E. lenta [2] [µg/mL] | Efficacy compared with Vancomycin-treated animals [3] | Percent Survival at Day-22 [3] [%] | Toxin A level at Day-22 [3] | Mean LOG10 CFU/mL of feces homogenates (cecal spore counts) at Day-22 [3] | Toxin B level at Day-22 [3] | half-life (in vitro) [h] | MIC to H. Pylori without EDTA (Heliobacter pylori) [µg/mL] | MIC to H. Pylori with 0.05M EDTA (Heliobacter pylori) [µg/mL] | half-life [4, 14] [h] | half-life ([4]; FaSSIF only half-life) [h] | Mean LOG10 CFU/mL of feces homogenates (cecal spore counts) at Day-22 ([5]; 6 mg/Kg oral gavage TID) [LOG10 CFU/mL] | Toxin A level at Day-22 ([5]; 6 mg/Kg oral gavage TID) [ng/mL] | Toxin B level at Day-22 ([5]; 6 mg/Kg oral gavage TID) [ng/mL] | Percent Survival at Day-22 [5, 15] [%] | Mean LOG10 CFU/mL of feces homogenates (cecal spore counts) at Day-22 ([5]; 20 mg/Kg oral gavage TID) [LOG10 CFU/mL] | Toxin A level at Day-22 ([5]; 20 mg/Kg oral gavage TID) [ng/mL] | Toxin B level at Day-22 ([5]; 20 mg/Kg oral gavage TID) [ng/mL] | Percent Survival at Day-22 [5, 16] [%] | Mean LOG10 CFU/mL of feces homogenates (cecal spore counts) at Day-22 ([5]; 60 mg/Kg oral gavage TID) [LOG10 CFU/mL] | other results |
| --- | --- | --- | --- | --- | --- | --- | --- | --- | --- | --- | --- | --- | --- | --- | --- | --- | --- | --- | --- | --- | --- |
| CC1(C)S[C@@H]2[C@H](NC(=O)[C@H](N)c3ccccc3)C(=O)N2[C@H]1C(=O)O [Ampicillin] |  |  |  |  |  |  |  |  |  |  |  |  |  |  |  |  |  |  |  |  | MIC [1]: 1 µg/mL (≈ 2.86 µM) |
| C=C1NC(=O)[C@H](Cc2c[nH]c3ccccc23)NC(=O)[C@H](NC(=O)[C@H](CCCCN)NC(=O)[C@@H](N)[C@@H](C)CC)CSC[C@@H](C(=O)N[C@H]2C(=O)N3CCC[C@H]3C(=O)NCC(=O)N[C@H](C(=O)N[C@@H](C)C(=O)N[C@@H](CC(N)=O)C(=O)NC(=CC)C(=O)NCC(=O)N[C@@H]3CSC[C@@H]4NC(=O)[C@H](Cc5ccccc5)NC(=O)[C@@H](CS/C=C\NC4=O)NC(=O)[C@H](CC(N)=O)NC(=O)[C@H](Cc4ccccc4)NC3=O)CS[C@H]2C)NC(=O)[C@H](CC(C)C)NC1=O [F1I R13N Y20F] | 0.125 (≈ 0.0575 µM) | equal or superior efficacy | 83 | 5.1 ng/mL | 2.65 LOG10 CFU/mL | 6 ng/mL | > 24 | 8 (≈ 3.68 µM) | 4 | > 12 | > 12 | 5.47 | 215.5 | 242.2 | 0 | 5.37 | 165.5 | 272.3 | 33 | 3.18 | Toxin A level at Day-22 ([5]; 60 mg/Kg oral gavage TID): 47.6 ng/mL; Toxin B level at Day-22 ([5]; 60 mg/Kg oral gavage TID): 108.7 ng/mL; Percent Survival at Day-22 [5, 17]: 83%; MIC P. anaerobius [6]: 0.125 µg/mL (≈ 0.0575 µM); MIC C. scindens [7]: 2 µg/mL (≈ 0.921 µM); MIC L. acidophilus [8]: 0.5 µg/mL (≈ 0.23 µM); MIC VRE ATCC 51575 ([9]; VRE): 8 µg/mL (≈ 3.68 µM); MIC VRE CCUG 47775 ([9]; VRE): 16 µg/mL (≈ 7.36 µM); MIC VRE ATCC 700221 (VRE Enterococcus faecium [10]): 8 µg/mL (≈ 3.68 µM) |
| C=C1NC(=O)[C@H](Cc2c[nH]c3ccccc23)NC(=O)[C@H](NC(=O)[C@H](CCCCN)NC(=O)[C@@H](N)C(C)C)CSC[C@@H](C(=O)N[C@H]2C(=O)N3CCC[C@H]3C(=O)NCC(=O)N[C@H](C(=O)N[C@@H](C)C(=O)N[C@@H](CC(N)=O)C(=O)N/C(=C\C)C(=O)NCC(=O)N[C@@H]3CSC[C@@H]4NC(=O)[C@H](Cc5ccc(O)cc5)NC(=O)[C@@H](CS/C=C\NC4=O)NC(=O)[C@H](CC(N)=O)NC(=O)[C@H](Cc4ccccc4)NC3=O)CS[C@H]2C)NC(=O)[C@H](CC(C)C)NC1=O [F1V R13N] | 0.5 (≈ 0.23 µM) | equal or superior efficacy | 100 | 0.8/0.8** ng/mL | 2.4* LOG10 CFU/mL | 0.8/0.8** ng/mL | > 24 | 8 (≈ 3.68 µM) | 8 | > 12 | > 12 | 4.27 | 266.2 | 238.1 | 50 | 3.88 | 74.2 | 57.8 | 66 | 2.51 | Mean LOG10 CFU/mL of feces homogenates (cecal spore counts) at Day-22 ([5]; 2 mg/Kg oral gavage TID): 6.13 LOG10 CFU/mL; Toxin A level at Day-22 ([5]; 2 mg/Kg oral gavage TID): 578.5 ng/mL; Toxin B level at Day-22 ([5]; 2 mg/Kg oral gavage TID): 462.7 ng/mL; Percent Survival at Day-22 ([5]; 2 mg/Kg oral gavage TID Days 2-6): 0%; Percent Survival at Day-22 ([5]; 35 mg/Kg oral gavage TID Days 2-6): 100%; Toxin A level at Day-22 [5, 18]: 0.8/0.8** ng/mL; Toxin B level at Day-22 [5, 18]: 0.8/0.8** ng/mL; Mean LOG10 CFU/mL of feces homogenates (cecal spore counts) at Day-22 ([5]; 35 mg/Kg oral gavage TID, limit of detection 2.40): 2.40* LOG10 CFU/mL; Toxin A level at Day-22 ([5]; 60 mg/Kg oral gavage TID): 7.3 ng/mL; Toxin B level at Day-22 ([5]; 60 mg/Kg oral gavage TID): 5.5 ng/mL; Percent Survival at Day-22 [5, 17]: 83%; Efficacy compared with Vancomycin-treated animals at the same dose ([5]; end of the study at Day 21, ascending dose regimen, in words): superior efficacy; MIC P. anaerobius [6]: 0.25 µg/mL (≈ 0.115 µM); MIC C. scindens [7]: 4 µg/mL (≈ 1.84 µM); MIC L. acidophilus [8]: 0.5 µg/mL (≈ 0.23 µM); MIC VRE ATCC 51575 ([9]; VRE): 32 µg/mL (≈ 14.7 µM); MIC VRE CCUG 47775 ([9]; VRE): 32 µg/mL (≈ 14.7 µM); MIC VRE ATCC 700221 (VRE Enterococcus faecium [10]): 16 µg/mL (≈ 7.36 µM) |
| CC(=O)NC[C@H]1CN(c2ccc(N3CCOCC3)c(F)c2)C(=O)O1 [Linezoid, Linezolid] |  |  |  |  |  |  |  |  |  |  |  |  |  |  |  |  |  |  |  |  | MIC (VRE Enterococcus faecium [11]; multi-site variants): 4 µg/mL (≈ 11.9 µM); MIC (VRE Enterococcus faecium [11]; single site variants): 2 µg/mL (≈ 5.93 µM); MIC ([12]; read-out: MIC VRE ATCC 51299): 2 µg/mL (≈ 5.93 µM); MIC ([12]; read-out: MIC VRE ATCC 51575): 2 µg/mL (≈ 5.93 µM); MIC ([12]; read-out: MIC VRE CCUG 47775): 2 µg/mL (≈ 5.93 µM); MIC VRE ATCC 51575 ([9]; strain ATCC 51575, multi-site variants): 2 µg/mL (≈ 5.93 µM); MIC [13]: 1 µg/mL (≈ 2.96 µM) |
| CC1COc2c(N3CCN(C)CC3)c(F)cc3c(=O)c(C(=O)O)cn1c23 (centres unmarked) [Ofloxacin] |  |  |  |  |  |  |  |  |  |  |  |  |  |  |  |  |  |  |  |  | MIC (Pseudomonas aerigunosa): 1 µg/mL (≈ 2.77 µM) |
| Gentamicin |  |  |  |  |  |  |  |  |  |  |  |  |  |  |  |  |  |  |  |  | MIC S. aureus ATCC 19636 (Staphylococcus aureus; strain ATCC 19636): 0.125 µg/mL; MIC S. aureus ATCC 29213 (Staphylococcus aureus; strain ATCC 29213): 0.25 µg/mL; MIC SS. aureus ATCC 33591 (Staphylococcus aureus; strain ATCC 33591): 1 µg/mL; MIC S. aureus BAA-1717 (Staphylococcus aureus; strain BAA-1717): 0.25 µg/mL |
